Assay results published in paper PMC12235045, “Structural insights into allosteric inhibition of HRI kinase by heme binding via HDX-MS” (Biochemical Journal, 2025).
Where two headings read alike, the source gives them in different places.

What was measured:
[1] = biological target: T1, Heme-regulated inhibitor (HRI) (Homo sapiens, UniProt Q9BQI3); experiment: ADP-GLO kinase assay with eIF2α substrate; supported by nanoDSF (+[…] °C at […]) and Phos-tag gels; assay type: biochemical
T1 construct: gene EIF2AK1; N-terminally His-tagged human HRI, dephosphorylated, from E. coli
T1 sequence (Q9BQI3 whole entry): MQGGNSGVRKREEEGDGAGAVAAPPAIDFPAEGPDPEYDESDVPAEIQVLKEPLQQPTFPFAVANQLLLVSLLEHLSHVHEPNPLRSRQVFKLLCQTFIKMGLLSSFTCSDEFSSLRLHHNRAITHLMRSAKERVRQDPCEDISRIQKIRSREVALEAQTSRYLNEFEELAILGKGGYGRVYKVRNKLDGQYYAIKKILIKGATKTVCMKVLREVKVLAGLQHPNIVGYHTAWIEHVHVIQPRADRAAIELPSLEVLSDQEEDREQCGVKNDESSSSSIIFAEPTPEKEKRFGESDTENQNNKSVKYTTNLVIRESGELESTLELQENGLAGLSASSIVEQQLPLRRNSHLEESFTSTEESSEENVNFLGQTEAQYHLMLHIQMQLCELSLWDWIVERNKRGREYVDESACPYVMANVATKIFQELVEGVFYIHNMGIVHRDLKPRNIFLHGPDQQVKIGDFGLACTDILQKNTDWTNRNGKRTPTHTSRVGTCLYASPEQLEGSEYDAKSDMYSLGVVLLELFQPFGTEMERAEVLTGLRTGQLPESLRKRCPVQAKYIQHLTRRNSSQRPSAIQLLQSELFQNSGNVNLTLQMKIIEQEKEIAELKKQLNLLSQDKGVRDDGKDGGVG

[2] = biological target: T1, Heme-regulated inhibitor (HRI); experiment: as above; assay type: biochemical; remark: listed apart in the source

IC50 [1] [nM]	IC50 [2] [nM]	SMILES
1070		COC(=O)N[C@@H](C)CNc1nccc(-c2cn(C(C)C)nc2-c2cc(Cl)cc(NS(C)(=O)=O)c2F)n1 [encorafenib]
	620	COc1ncc(Cl)cc1S(=O)(=O)Nc1ccc(F)c(C#Cc2cnc(N)nc2)c1F [GCN2iB]
